These results are taken from patent publication US20260209208A1, “PHENYL-PYRAZOLE CARBOXAMIDE COMPOUNDS” (Acrivon Therapeutics, Inc., priority 2022, published 2026).

The target of one data set is T1, Myt1 Kinase (Homo sapiens, UniProt Q99640).
T1 construct: endogenous in cells; host or cells: DAOY medulloblastoma cells (ATCC)
T1 sequence (Q99640 1-499): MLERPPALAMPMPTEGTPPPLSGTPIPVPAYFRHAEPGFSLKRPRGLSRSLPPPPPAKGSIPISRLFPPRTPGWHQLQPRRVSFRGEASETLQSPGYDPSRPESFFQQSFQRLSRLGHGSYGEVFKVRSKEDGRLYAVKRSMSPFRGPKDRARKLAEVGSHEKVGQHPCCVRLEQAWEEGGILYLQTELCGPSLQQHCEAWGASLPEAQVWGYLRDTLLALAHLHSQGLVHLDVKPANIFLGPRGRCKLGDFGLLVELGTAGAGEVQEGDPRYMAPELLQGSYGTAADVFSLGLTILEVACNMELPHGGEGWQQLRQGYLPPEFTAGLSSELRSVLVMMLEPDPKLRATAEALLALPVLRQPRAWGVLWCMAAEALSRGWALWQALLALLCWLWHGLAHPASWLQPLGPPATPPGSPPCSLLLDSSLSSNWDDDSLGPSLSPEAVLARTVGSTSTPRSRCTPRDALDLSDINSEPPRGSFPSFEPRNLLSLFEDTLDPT
Put plainly: AlphaLISA SureFire Ultra Human Phospho-CDK1 (Thr14) target engagement assay in DAOY cells. The note with it: 4 h incubation, Cdk1 phosphorylated on threonine 14, read-out: TE Myt1 Kinase (AlphaLISA). It counts as cell-based.

Data set [1] concerns the target T2, recombinant human PMYT-1 (Myt1 kinase) (Homo sapiens, UniProt Q99640).
T2 construct: full length PMYT-1 was expressed by baculovirus in insect cells using a N-terminal GST tag; purchased Invitrogen A30984; host or cells: insect cells (baculovirus)
T2 sequence (Q99640 1-499): T1 sequence (Q99640 1-499)
Put plainly: LanthaScreen Europium (Eu) Kinase Binding Assay for Myt1 kinase. To be noted: TR-FRET tracer 178 displacement, GST-tagged full length PMYT-1, 60 min, room temperature; mean IC50; read-out: LANTHA Kinase Binding for PMyt1. (In general: TR-FRET usually uses a lanthanide donor and a delayed reading to cut background.)

The nature of data set [2]: Oral bioavailability study in mice. It counts as in vivo. To be noted: female CD-1 mice, single IV bolus 1 mg/kg vs oral gavage 3 mg/kg, dose normalized AUC0-∞. Here is the method:
We compared the oral bioavailability of Compound 75:
(Compound A), which has a thiazolyl moiety in place of the furanyl moiety in Compound 75. Female CD-1 mice treated with a single intravenous bolus (IV; 1 mg/kg) or oral gavage (PO; 3 mg/kg) of one of the compounds. The percent bioavailability (% F) was calculated by dividing the dose normalized area under the plasma concentration curve (AUC0-∞) by the dose normalized IV plasma AUC0-∞.

A further data set has as its system DAOY cells. Put plainly: Cell Titer Glo viability assay. It counts as cell-based. The note with it: Homo sapiens, 144 hours, Cell Titer Glo 2.0. Here is the method: DAOY medulloblastoma cell line (ATCC) was cultured in Minimum Essential Medium Eagle supplemented with 10% fetal calf serum (Sigma), 1% Penicillin-Streptomycin and 10 mM HEPES buffer (HyClone). Cell cultures were kept in a humidified incubator at 37° C. and 5% CO2. Cells were routinely tested for Mycoplasma contamination.
DAOY cells were seeded at a density of 250 cells per well in tissue culture 384 well plates (Corning Costar). After overnight incubation, cells were incubated with test compounds at concentrations ranging from 0.17 to 10,000 nM. Viability compared to untreated control was assessed at 144 hours using Cell Titer Glo® 2.0 Viability Assay (Promega).
(In general: Cellular ATP, detected with luciferase, serves as a proxy for viable cell number.)

Structures are written as SMILES.

`Cc1ccc(O)c(C)c1-n1nc(-c2ccco2)c(C(N)=O)c1N` [Compound 75, 5-amino-3-(2-furyl)-1-(3-hydroxy-2,6-xylyl)-4-pyrazolecarboxamide]: the EC50 on Myt1 Kinase is not above 250 nM; in the data set with DAOY cells, not above 500 nM. In addition, the IC50 in data set [1] was not above 10 nM. Besides, in data set [2], the “Bioavailability (% F)” value stood at 64 % F.
Turning to `C/C=C/c1coc(-c2nn(-c3c(C)ccc(O)c3C)c(N)c2C(N)=O)c1` [Compound 112, 3-{4-[(E)-1-propenyl]-2-furyl}-5-amino-1-(3-hydroxy-2,6-xylyl)-4-pyrazolecarboxamide], the EC50 is not above 250 nM at Myt1 Kinase and 500 to 1000 nM in the data set with DAOY cells. Further, the IC50 in data set [1] was not above 10 nM.
For the compound `Cc1ccc(O)c(C)c1-n1nc(-c2cc(C#CC(C)(C)O)co2)c(C(N)=O)c1N` [Compound 113, 5-amino-3-[4-(3-hydroxy-3-methyl-1-butynyl)-2-furyl]-1-(3-hydroxy-2,6-xylyl)-4-pyrazolecarboxamide], the EC50 at Myt1 Kinase is 250 to 500 nM; with DAOY cells, more than 1000 nM. Besides, the IC50 in data set [1] lay in the range of 10 to 100 nM.
In the same order, the values of `CC#Cc1coc(-c2nn(-c3c(C)ccc(O)c3C)c(N)c2C(N)=O)c1` [Compound 114, 5-amino-1-(3-hydroxy-2,6-xylyl)-3-[4-(1-propynyl)-2-furyl]-4-pyrazolecarboxamide] are not above 250 nM, 500 to 1000 nM and not above 10 nM.
The like results for `COc1ccc2oc(-c3nn(-c4c(C)ccc(O)c4C)c(N)c3C(N)=O)cc2c1` [Compound 115, 5-amino-1-(3-hydroxy-2,6-dimethylphenyl)-3-(5-methoxybenzofuran-2-yl)-1H-pyrazole-4-carboxamide] were, in that order, not above 250 nM, 500 to 1000 nM and not above 10 nM.
In the same order, the values of `Cc1ccc(O)c(C)c1-n1nc(-c2cccs2)c(C(N)=O)c1N` [Compound 119] are not above 250 nM, 500 to 1000 nM and not above 10 nM.
With `Cc1ccc(O)c(C)c1-n1nc(-c2nccs2)c(C(N)=O)c1N` [Compound 122], the EC50 on Myt1 Kinase was not above 250 nM; in the data set on DAOY cells it was not above 500 nM. In addition, the IC50 in data set [1] is not above 10 nM. The “Bioavailability (% F)” value in data set [2] stood at 32 % F.
Take `Cc1ccc(O)c(C)c1-n1nc(-c2ncco2)c(C(N)=O)c1N` [Compound 123]: the EC50 was not above 250 nM at Myt1 Kinase and 500 to 1000 nM with DAOY cells. Besides, the IC50 in data set [1] is not above 10 nM.
